In ChEMBL document CHEMBL5352469, “Solubility-driven optimization of benzothiopyranone salts leading to a preclinical candidate with improved pharmacokinetic properties and activity against Mycobacterium tuberculosis” (Eur J Med Chem, 2023):
Converted amounts (≈) assume the structure as drawn.

Tests used:
[1] = MRT (0 to infinity) in Sprague-Dawley rat at 5 mg/kg, iv measured upto 24 hrs by LC/MS/MS analysis; assay type: ADME, organism-based; conditions: in vivo
[2] = system: Mycobacterium tuberculosis; assay: Antibacterial activity against Mycobacterium tuberculosis H37Rv BALB/c mouse model assessed as reduction in delta CFU in lungs at 100 mg/kg via oral gavage for 30 days; assay type: functional; conditions: time 30 day
[3] = system: Mycobacterium tuberculosis; assay: Antibacterial activity against Mycobacterium tuberculosis H37Rv BALB/c mouse model assessed as reduction in delta CFU in lungs at 25 mg/kg via oral gavage for 30 days; assay type: functional; conditions: time 30 day
[4] = AUC (0 to infinity) in Sprague-Dawley rat at 50 mg/kg, po measured upto 24 hrs by LC/MS/MS analysis; assay type: ADME, organism-based; set-up: time < 24 hrs, dose 50 mg/kg, route po; conditions: in vivo
[5] = Lipophilicity, log D of the compound in octanol/water at pH 2.0 incubated for 72 hrs under shaking condition by shake flask based HPLC-PDA method; assay type: physicochemical; conditions: pH 2, 72 h
[6] = Cmax in Balb/c mouse at 50 mg/kg, po measured upto 24 hrs by LC/MS/MS analysis; assay type: ADME, organism-based; set-up: time < 24 hrs, dose 50 mg/kg, route po; conditions: in vivo
[7] = Cmax in Balb/c mouse at 5 mg/kg, iv measured upto 24 hrs by LC/MS/MS analysis; assay type: ADME, organism-based; set-up: dose 5 mg/kg, time < 24 hrs, route iv; conditions: in vivo
[8] = Elimination half life in Sprague-Dawley rat at 5 mg/kg, iv measured upto 24 hrs by LC/MS/MS analysis; assay type: ADME, organism-based; conditions: in vivo, read-out: beta t1/2 (converted)
[9] = AUC (0 to t) in Balb/c mouse at 50 mg/kg, po measured upto 24 hrs by LC/MS/MS analysis; assay type: ADME, organism-based; set-up: dose 50 mg/kg, time < 24 hrs, route po; conditions: in vivo, 24 h
[10] = AUC (0 to infinity) in Sprague-Dawley rat at 5 mg/kg, iv measured upto 24 hrs by LC/MS/MS analysis; assay type: ADME, organism-based; set-up: time < 24 hrs, dose 5 mg/kg, route iv; conditions: in vivo
[11] = Elimination half life in Balb/c mouse at 50 mg/kg, po measured upto 24 hrs by LC/MS/MS analysis; assay type: ADME, organism-based; conditions: in vivo, read-out: beta t1/2 (converted)
[12] = Lipophilicity, log D of the compound in octanol/water at pH 7.6 incubated for 72 hrs under shaking condition by shake flask based HPLC-PDA method; assay type: physicochemical; conditions: pH 7.6, 72 h
[13] = Lipophilicity, log D of the compound in octanol/water at pH 6.8 incubated for 72 hrs under shaking condition by shake flask based HPLC-PDA method; assay type: physicochemical; conditions: pH 6.8, 72 h
[14] = Apparent permeability across basolateral to apical side in human Caco-2 cells incubated for 21 days; assay type: ADME, cell-based; conditions: time 21 day
[15] = Oral bioavailability in Sprague-Dawley rat at 50 mg/kg measured upto 24 hrs by LC/MS/MS analysis; assay type: ADME, organism-based; conditions: in vivo
[16] = Cmax in Sprague-Dawley rat at 5 mg/kg, iv measured upto 24 hrs by LC/MS/MS analysis; assay type: ADME, organism-based; set-up: time < 24 hrs, dose 5 mg/kg, route iv; conditions: in vivo
[17] = system: Mycobacterium tuberculosis; assay: Antibacterial activity against Mycobacterium tuberculosis H37Rv BALB/c mouse model assessed as reduction in CFU in lungs at 25 mg/kg via oral gavage for 30 days (reference value: 5.92 +/-0.29); assay type: functional; conditions: time 30 day
[18] = Aqueous solubility of compound by HPLC-PDA method; assay type: physicochemical; conditions: buffer; read-out: solubility
[19] = Chemical stability of the compound under 60 degree C high temperature by measuring compound purity incubated for 10 days by HPLC-PDA method analysis relative to initial purity; assay type: physicochemical; conditions: 240 h; time 10 day
[20] = system: Mycobacterium tuberculosis; assay: Antibacterial activity against Mycobacterium tuberculosis H37Rv BALB/c mouse model assessed as reduction in CFU in lungs at 100 mg/kg via oral gavage for 30 days (reference value: 5.92 +/-0.29); assay type: functional; conditions: time 30 day
[21] = MRT (0 to infinity) in Sprague-Dawley rat at 50 mg/kg, po measured upto 24 hrs by LC/MS/MS analysis; assay type: ADME, organism-based; conditions: in vivo
[22] = Tmax in Sprague-Dawley rat at 50 mg/kg, po measured upto 24 hrs by LC/MS/MS analysis; assay type: ADME, organism-based; conditions: in vivo
[23] = Chemical stability of the compound under 92.5% humidity by measuring compound purity incubated for 10 days by HPLC-PDA method relative to initial purity; assay type: physicochemical; conditions: 240 h; time 10 day
[24] = Elimination half life in Balb/c mouse at 5 mg/kg, iv measured upto 24 hrs by LC/MS/MS analysis; assay type: ADME, organism-based; conditions: in vivo, read-out: beta t1/2 (converted)
[25] = Clearance in Sprague-Dawley rat at 5 mg/kg, iv measured upto 24 hrs by LC/MS/MS analysis; assay type: ADME, organism-based; conditions: in vivo
[26] = AUC (0 to t) in Sprague-Dawley rat at 50 mg/kg, po measured upto 24 hrs by LC/MS/MS analysis; assay type: ADME, organism-based; set-up: dose 50 mg/kg, time < 24 hrs, route po; conditions: in vivo
[27] = Efflux ratio of apparent permeability across basolateral to apical side over apical to basolateral side in human Caco-2 cells; assay type: ADME, cell-based
[28] = Tmax in Balb/c mouse at 50 mg/kg, po measured upto 24 hrs by LC/MS/MS analysis; assay type: ADME, organism-based; conditions: in vivo
[29] = Cmax in Sprague-Dawley rat at 50 mg/kg, po measured upto 24 hrs by LC/MS/MS analysis; assay type: ADME, organism-based; set-up: time < 24 hrs, dose 50 mg/kg, route po; conditions: in vivo
[30] = Oral bioavailability in Balb/c mouse at 50 mg/kg measured upto 24 hrs by LC/MS/MS analysis; assay type: ADME, organism-based; conditions: in vivo, po, 50 mg/kg, 24 h
[31] = system: Mycobacterium tuberculosis; assay: Antibacterial activity against Mycobacterium tuberculosis H37Rv BALB/c mouse model assessed as reduction in delta CFU in lungs at 50 mg/kg via oral gavage for 30 days; assay type: functional; conditions: time 30 day
[32] = Apparent permeability across apical to basolateral side in human Caco-2 cells incubated for 21 days; assay type: ADME, cell-based; conditions: time 21 day
[33] = Chemical stability of the compound under 4500 +/- 500 lx light condition by measuring compound purity incubated for 10 days by HPLC-PDA method relative to initial purity; assay type: physicochemical; conditions: 240 h; time 10 day
[34] = AUC (0 to t) in Balb/c mouse at 5 mg/kg, iv measured upto 24 hrs by LC/MS/MS analysis; assay type: ADME, organism-based; set-up: time < 24 hrs, dose 5 mg/kg, route iv; conditions: in vivo, 24 h
[35] = Lipophilicity, log D of the compound in octanol/water at pH 4.0 incubated for 72 hrs under shaking condition by shake flask based HPLC-PDA method; assay type: physicochemical; conditions: pH 4, 72 h
[36] = Elimination half life in Sprague-Dawley rat at 50 mg/kg, po measured upto 24 hrs by LC/MS/MS analysis; assay type: ADME, organism-based; conditions: in vivo, read-out: beta t1/2 (converted)
[37] = AUC (0 to t) in Sprague-Dawley rat at 5 mg/kg, iv measured upto 24 hrs by LC/MS/MS analysis; assay type: ADME, organism-based; set-up: time < 24 hrs, dose 5 mg/kg, route iv; conditions: in vivo
[38] = system: Mycobacterium tuberculosis; assay: Antibacterial activity against Mycobacterium tuberculosis H37Rv BALB/c mouse model assessed as reduction in CFU in lungs at 50 mg/kg via oral gavage for 30 days (reference value: 5.92 +/-0.29); assay type: functional; conditions: time 30 day
[39] = Lipophilicity, log P of the compound in octanol/water incubated for 72 hrs under shaking condition by shake flask based HPLC-PDA method; assay type: physicochemical; conditions: 72 h

## O=c1cc(N2CCN(CC3CCCCC3)CC2)sc2c([N+](=O)[O-])cc(C(F)(F)F)cc12
[1]
  MRT inf: 2.99 h
[2]
  Activity: 3.73 log10CFU
[3]
  Activity: 2.28 log10CFU
[4]
  AUC(0-inf): 769 ng·h/mL
[5]
  logD: 1.29
[6]
  Cmax: 588 ng/mL
[7]
  Cmax: 8240 ng/mL
[8]
  half-life: 8.27 h
[9]
  AUCt: 1581 ng·h/mL
[10]
  AUC(0-inf): 1580 ng·h/mL
[11]
  half-life: 7.25 h
[12]
  logD: > 4.32
[13]
  logD: > 4.3
[14]
  Papp B→A: 0.69 ×10⁻⁶ cm/s
[15]
  bioavailability: 4.87%
[16]
  Cmax: 3560 ng/mL
[17]
  Activity: 3.64 log10CFU
[18]
  solubility: 0.15 µg/mL (≈ 0.329 µM)
[19]
  Stability: 100%
[20]
  Activity: 2.19 log10CFU
[21]
  MRT inf: 5.94 h
[22]
  Tmax: 3.67 h
[23]
  Stability: 100%
[24]
  half-life: 6.54 h
[25]
  clearance: 53.8 mL/min/kg
[26]
  AUC(0-t) at 24 h: 741 ng·h/mL
[27]
  efflux ratio: 0.1
[28]
  Tmax: 0.5 h
[29]
  Cmax: 109 ng/mL
[30]
  F: 13.1%
[31]
  Activity: 3.58 log10CFU
[32]
  Papp A→B: 11.8 ×10⁻⁶ cm/s
[33]
  Stability: 98.2%
[34]
  AUCt: 4954 ng·h/mL
[35]
  logD: 3.72
[36]
  half-life: 3.83 h
[37]
  AUC(0-t) at 24 h: 1540 ng·h/mL
[38]
  Activity: 2.34 log10CFU
[39]
  logP: 3.71
